Key:
[1] = xn = mol fraction of the nth substance listed; conditions: 298.15 K, 101 kPa, Liquid; for speed of sound: Sing-around technique in a fixed-path interferometer; for viscosity: Capillary tube (Ostwald / Ubbelohde) method; for mass density: Vibrating tube method
[2] = 298.15 K, 101.33 kPa, Liquid; for viscosity: Capillary tube (Ostwald / Ubbelohde) method; for speed of sound: Sing-around technique in a fixed-path interferometer; for mass density: Vibrating tube method

CCCCCCCO [heptan-1-ol] + ClC(Cl)=C(Cl)Cl
Conditions | speed of sound [m/s]
[1], x1 = 1 | 1329

CC1CCCCC1 [methylcyclohexane] + CCCCCCCO
Conditions | speed of sound [m/s]
[1], x2 = 0 | 1215

CCCCCCCO [heptan-1-ol] + CC1CCCCC1
[1]
Conditions | mass density [kg/m3] | speed of sound [m/s] | viscosity [mPa·s]
x1 = 0.1 | 770.2 | – | –
x1 = 0.1009 | – | – | 0.797
x1 = 0.1031 | – | 1217 | –
x1 = 0.1506 | 773.03 | – | –
x1 = 0.2001 | 775.76 | – | –
x1 = 0.2007 | – | – | 0.956
x1 = 0.2024 | – | 1225 | –
x1 = 0.3006 | – | 1236 | –
x1 = 0.3011 | 781.37 | – | 1.174
x1 = 0.4 | 786.91 | – | –
x1 = 0.4011 | – | – | 1.461
x1 = 0.4033 | – | 1247 | –
x1 = 0.449 | 789.61 | – | –
x1 = 0.4501 | – | – | 1.64
x1 = 0.4973 | – | 1259 | –
x1 = 0.4985 | – | – | 1.839
x1 = 0.5002 | 792.45 | – | –
x1 = 0.5394 | – | 1264 | –
x1 = 0.5497 | 795.18 | – | –
x1 = 0.5999 | 797.98 | – | –
x1 = 0.6026 | – | 1273 | –
x1 = 0.6033 | – | – | 2.384
x1 = 0.6503 | 800.71 | – | –
x1 = 0.7007 | 803.42 | – | –
x1 = 0.7045 | – | 1287 | –
x1 = 0.7417 | – | – | 3.369
x1 = 0.7972 | – | 1300 | –
x1 = 0.7985 | – | – | 3.875
x1 = 0.8 | 808.68 | – | –
x1 = 0.8495 | 811.24 | – | –
x1 = 0.8951 | – | 1315 | –
x1 = 0.8998 | 813.8 | – | –
x1 = 0.9006 | – | – | 4.922
x1 = 1 | – | 1329 | –

CCCCCCCO [heptan-1-ol]
[2]
Conditions | mass density [kg/m3] | speed of sound [m/s] | viscosity [mPa·s]
– | 818.77 | 1329 | 6.041

ClC(Cl)=C(Cl)Cl [tetrachloroethene]
[2]
Conditions | mass density [kg/m3] | speed of sound [m/s] | viscosity [mPa·s]
– | 1614.49 | 1039 | 0.847

ClC(Cl)=C(Cl)Cl [tetrachloroethene] + CC1CCCCC1
[1]
Conditions | mass density [kg/m3] | speed of sound [m/s] | viscosity [mPa·s]
x1 = 0.0999 | – | – | 0.69
x1 = 0.1007 | 834.38 | – | –
x1 = 0.1924 | 900.06 | – | –
x1 = 0.2 | 905.67 | – | –
x1 = 0.2068 | – | – | 0.698
x1 = 0.2439 | – | 1184 | –
x1 = 0.2504 | 942.96 | – | –
x1 = 0.2505 | – | – | 0.701
x1 = 0.2982 | – | – | 0.705
x1 = 0.3011 | 981.34 | – | –
x1 = 0.3029 | 982.75 | – | –
x1 = 0.3944 | – | – | 0.716
x1 = 0.4001 | 1058.76 | – | –
x1 = 0.4173 | – | 1156 | –
x1 = 0.4897 | – | 1146 | –
x1 = 0.4996 | – | – | 0.728
x1 = 0.5009 | 1141.4 | – | –
x1 = 0.5494 | – | 1136 | –
x1 = 0.5503 | 1183.38 | – | –
x1 = 0.5984 | 1225.08 | – | –
x1 = 0.6016 | – | – | 0.746
x1 = 0.6496 | 1270.62 | – | –
x1 = 0.6549 | – | 1116 | –
x1 = 0.7007 | – | – | 0.765
x1 = 0.7014 | 1317.87 | – | –
x1 = 0.7372 | – | 1098 | –
x1 = 0.7786 | – | 1089 | –
x1 = 0.7995 | 1410.5 | – | –
x1 = 0.8008 | – | – | 0.789
x1 = 0.8104 | – | 1082 | –
x1 = 0.8418 | – | 1075 | –
x1 = 0.8489 | 1458.9 | – | –
x1 = 0.8693 | – | 1069 | –
x1 = 0.8986 | 1508.67 | – | –
x1 = 0.8996 | – | – | 0.816
x1 = 0.9188 | – | 1057 | –
x1 = 1 | – | 1039 | –

CC1CCCCC1 [methylcyclohexane] + ClC(Cl)=C(Cl)Cl
Conditions | speed of sound [m/s]
[1], x2 = 0 | 1215

CC1CCCCC1 [methylcyclohexane]
[2]
Conditions | mass density [kg/m3] | speed of sound [m/s] | viscosity [mPa·s]
– | 764.99 | 1209 | 0.684

ClC(Cl)=C(Cl)Cl [tetrachloroethene] + CCCCCCCO
[1]
Conditions | mass density [kg/m3] | speed of sound [m/s] | viscosity [mPa·s]
x2 = 0 | – | 1039 | –
x2 = 0.093 | 1514.31 | – | –
x2 = 0.0967 | – | 1050 | –
x2 = 0.102 | – | – | 0.995
x2 = 0.1957 | – | 1069 | –
x2 = 0.1994 | 1409 | – | –
x2 = 0.2118 | – | – | 1.222
x2 = 0.2492 | – | 1082 | –
x2 = 0.2498 | – | – | 1.32
x2 = 0.2502 | 1361.6 | – | –
x2 = 0.2952 | – | 1093 | –
x2 = 0.2986 | 1318.1 | – | –
x2 = 0.3015 | – | – | 1.457
x2 = 0.3905 | – | 1120 | –
x2 = 0.3979 | 1233.3 | – | –
x2 = 0.3997 | – | – | 1.795
x2 = 0.4452 | 1194.85 | – | –
x2 = 0.4667 | – | 1142 | –
x2 = 0.4983 | 1153.02 | – | –
x2 = 0.4998 | – | – | 2.24
x2 = 0.5478 | – | – | 2.485
x2 = 0.5495 | 1114.05 | – | –
x2 = 0.5531 | – | 1169 | –
x2 = 0.587 | – | – | 2.703
x2 = 0.5894 | – | 1178 | –
x2 = 0.5995 | 1077.22 | – | –
x2 = 0.6488 | 1042 | – | –
x2 = 0.6507 | – | 1200 | –
x2 = 0.6969 | 1008.69 | – | –
x2 = 0.6995 | – | – | 3.451
x2 = 0.7002 | – | 1217 | –
x2 = 0.74 | – | – | 3.742
x2 = 0.7932 | 944.69 | – | –
x2 = 0.7954 | – | – | 4.184
x2 = 0.7989 | – | 1252 | –
x2 = 0.8497 | 908.83 | – | –
x2 = 0.8969 | – | 1290 | –
x2 = 0.8985 | – | – | 5.06
x2 = 0.8986 | 878.72 | – | –

From the NIST ThermoML archive (doi:10.1016/j.jct.2006.07.015)
